Experiments:
Normal human fibroblasts [1] = assay: Test of fibroblast activation function (MTT formazan); assay type: cell-based; conditions: positive control, DMEM containing 5 percent FBS, 48 hours, control = 100, n = 5
Protocol: 3-(4,5-Dimethyl-2-thiazolyl)-2,5-diphenyl-2H-tetrazolium […] (MTT) cleaves NADPH or NADH produced in energy metabolic processes in mitochondria within cells to produce formazan. Thus, the quantity of formazan produced was adopted as an indicator of cell activation function.
Normal human fibroblasts were seeded onto a 96-well microplate at a cell density of 3.0×10^4 cells/well. After culturing for 24 hours in Dulbecco's modified eagle medium (DMEM) containing 1 percent fetal bovine serum (FBS), the medium was replaced with DMEM containing 1 percent FBS containing a freeze-dried product of grape sap in the concentration shown in Table 1. A positive control (PC) in the form of DMEM containing 5 percent FBS was employed. […]
The cells were washed, the formazan produced in the cells was dissolved in 2-propanol, and a microplate reader was employed to measure the absorbance at 550 nm and 650 nm. The difference between the two was calculated to evaluate the quantity of formazan generated within the cells. Cell activation function was denoted by an activation index (%) with the absorbance (ABS.) of cultivated cells to which no sample was added (control) being denoted as 100. […] The p value was determined to be significant when p<0.05.

Normal human fibroblasts [2] = assay: Test of collagen synthesis promoting function of fibroblasts (type I collagen ELISA, BCA protein); assay type: cell-based; conditions: positive control, concentration not given, 48 hours
Protocol: The collagen synthesis of fibroblasts was evaluated by quantifying the amount of secreted type I collagen in culture supernatant by ELISA.
Normal human fibroblasts were seeded onto a 96-well microplate at a cell density of 3.0×10^4 cells/well. After culturing for 24 hours in DMEM containing 0.5 percent FBS, the medium was replaced with DMEM containing 0.5 percent FBS containing a freeze-dried product of grape sap in the concentration shown in Table 2. A PC in the form of magnesium ascorbyl phosphate (VCPMg) was employed. After 48 hours, the culture supernatant was collected and the amount of type I collagen was quantified by ELISA.
Culture supernatant and calibration curve-use type I collagen were placed in a 96-well plate and coated overnight at 4° C. […] Twenty minutes later, a microplate reader was employed to measure the absorbance at 405 nm. The quantity of collagen in the culture supernatant was calculated from a calibration curve measured with the same plate.
At the same time, the quantity of cell protein was quantified using BCA protein assay reagent (PIERCE). The quantity of collagen in the culture supernatant was divided by the quantity of protein to calculate the quantity of collagen per unit of protein, which was adopted as the quantity of collagen synthesized by the cells. […] The p value was determined to be significant when p<0.05. […]

## O=C1O[C@H]([C@@H](O)CO)C([O-])=C1OP(=O)([O-])[O-].O=C1O[C@H]([C@@H](O)CO)C([O-])=C1OP(=O)([O-])[O-].[Mg+2].[Mg+2].[Mg+2] [PC, magnesium ascorbyl phosphate]
Normal human fibroblasts [1]
  Activation index (%) Mean ± SD: 116.0 ± 2.9%
Normal human fibroblasts [2]
  Collagen amount (ng/μg protein) Mean ± SD: 32.9 ± 4.8 ng/μg protein
  Protein amount (μg) Mean ± SD: 11.2 ± 0.2 µg

From US20090297645A1, “Fibroblast Activator and Method of Activating Fibroblast, Collagen Synthesis Promoter and Method of Promoting Collagen Synthesis, and Skin Antiaging Agent and Method of Preventing Aging of Skin” (priority 2005, published 2009)
